The text below walks through data of article PMC8464048 (Nucleic Acids Research, 2021).

What is called Kd is the equilibrium constant for the complex coming apart. The low end stands for higher affinity, the high end for lower affinity.

The structures appear in SMILES notation.

This test concerns the target T1, EcGlyRS-FL (heterotetrameric (αβ)2 glycyl-tRNA synthetase) (Escherichia coli, UniProt P00960+P00961).
T1 construct: gene glyQ; full-length alpha (1-303) and full-length beta (1-689, C-terminal 6xHis), co-expressed in E. coli BL21(DE3); (αβ)2 heterotetramer
T1 sequence (P00960 1-303): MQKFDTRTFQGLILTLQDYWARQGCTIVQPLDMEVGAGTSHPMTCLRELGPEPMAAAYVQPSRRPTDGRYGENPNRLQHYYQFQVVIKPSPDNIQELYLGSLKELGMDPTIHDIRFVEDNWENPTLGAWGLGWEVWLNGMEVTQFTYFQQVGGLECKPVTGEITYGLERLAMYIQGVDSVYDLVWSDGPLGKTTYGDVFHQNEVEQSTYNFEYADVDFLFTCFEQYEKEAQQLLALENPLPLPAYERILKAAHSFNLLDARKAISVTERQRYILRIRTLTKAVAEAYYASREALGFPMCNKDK
T1 sequence (P00961 1-689): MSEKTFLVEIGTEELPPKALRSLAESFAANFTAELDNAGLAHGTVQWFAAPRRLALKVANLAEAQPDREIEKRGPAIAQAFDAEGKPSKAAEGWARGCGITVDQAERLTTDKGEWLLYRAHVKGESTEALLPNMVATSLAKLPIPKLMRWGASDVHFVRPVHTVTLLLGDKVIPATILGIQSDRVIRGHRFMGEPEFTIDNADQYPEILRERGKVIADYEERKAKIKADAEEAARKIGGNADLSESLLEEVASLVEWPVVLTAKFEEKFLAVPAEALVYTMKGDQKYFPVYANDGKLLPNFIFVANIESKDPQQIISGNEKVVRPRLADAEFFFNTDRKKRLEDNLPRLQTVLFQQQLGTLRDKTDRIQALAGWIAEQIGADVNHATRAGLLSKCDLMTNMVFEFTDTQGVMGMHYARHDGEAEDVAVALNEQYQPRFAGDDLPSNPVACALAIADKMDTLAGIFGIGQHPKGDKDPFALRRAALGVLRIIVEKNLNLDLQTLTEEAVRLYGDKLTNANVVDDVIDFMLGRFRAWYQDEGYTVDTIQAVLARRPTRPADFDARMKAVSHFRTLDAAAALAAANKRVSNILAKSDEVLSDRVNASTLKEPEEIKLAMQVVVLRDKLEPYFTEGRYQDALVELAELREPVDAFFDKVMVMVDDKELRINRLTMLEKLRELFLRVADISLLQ
Kind of test: isothermal titration calorimetry, one-site fit. It is filed as binding. On the technique in general: In ITC the heat of successive injections is recorded.

In the case of `Nc1ncnc2c1ncn2[C@@H]1O[C@H](COP(=O)(O)OP(=O)(O)OP(=O)(O)O)[C@@H](O)[C@H]1O` [ATP], the equilibrium dissociation constant (Kd) was ~6 µM.
